Data: PubChem BioAssay (NCI)
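Following 48 hours of exposure in 96-well plates, responses at five concentrations were used to interpolate endpoints linearly. The concentration for 50% growth inhibition is given as GI50. TGI: total growth inhibition.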

What was measured:
Experiment in all cases: DTP human tumour cell line panel, 48 h; in the data active = GI50 below about 0.43 µM; inactive = the rest
MDA-MB-231 breast = system: MDA-MB-231 breast
NCI-H460 lung = system: NCI-H460 lung
CAKI-1 renal = system: CAKI-1 renal
SF-295 CNS = system: SF-295 CNS
MCF7 breast = system: MCF7 breast
SF-539 CNS = system: SF-539 CNS
HCT-116 colon = system: HCT-116 colon
HS 578T breast = system: HS 578T breast
NCI/ADR-RES ovarian = system: NCI/ADR-RES ovarian
SK-MEL-28 melanoma = system: SK-MEL-28 melanoma
SNB-75 CNS = system: SNB-75 CNS
SF-268 CNS = system: SF-268 CNS
SN12C renal = system: SN12C renal
U251 CNS = system: U251 CNS
TK-10 renal = system: TK-10 renal
786-0 renal = system: 786-0 renal
UACC-257 melanoma = system: UACC-257 melanoma
OVCAR-3 ovarian = system: OVCAR-3 ovarian
IGROV1 ovarian = system: IGROV1 ovarian
RPMI-8226 leukemia = system: RPMI-8226 leukemia
MALME-3M melanoma = system: MALME-3M melanoma
SNB-19 CNS = system: SNB-19 CNS
SW-620 colon = system: SW-620 colon
SK-MEL-2 melanoma = system: SK-MEL-2 melanoma
NCI-H23 lung = system: NCI-H23 lung
DU-145 prostate = system: DU-145 prostate
NCI-H522 lung = system: NCI-H522 lung
MOLT-4 leukemia = system: MOLT-4 leukemia
KM12 colon = system: KM12 colon
LOX IMVI melanoma = system: LOX IMVI melanoma
A498 renal = system: A498 renal
T-47D breast = system: T-47D breast
BT-549 breast = system: BT-549 breast
SK-OV-3 ovarian = system: SK-OV-3 ovarian
K-562 leukemia = system: K-562 leukemia
MDA-MB-435 = system: MDA-MB-435
HL-60(TB) leukemia = system: HL-60(TB) leukemia
M14 melanoma = system: M14 melanoma
ACHN renal = system: ACHN renal
PC-3 prostate = system: PC-3 prostate
UACC-62 melanoma = system: UACC-62 melanoma
HCT-15 colon = system: HCT-15 colon
HOP-92 NSCLC = system: HOP-92 NSCLC
OVCAR-4 ovarian = system: OVCAR-4 ovarian
RXF 393 renal = system: RXF 393 renal
HT29 colon = system: HT29 colon
COLO 205 colon = system: COLO 205 colon
SK-MEL-5 melanoma = system: SK-MEL-5 melanoma
UO-31 renal = system: UO-31 renal
CCRF-CEM leukemia = system: CCRF-CEM leukemia
OVCAR-8 ovarian = system: OVCAR-8 ovarian
A549 NSCLC = system: A549 NSCLC
SR leukemia = system: SR leukemia
HOP-62 NSCLC = system: HOP-62 NSCLC
EKVX NSCLC = system: EKVX NSCLC
OVCAR-5 ovarian = system: OVCAR-5 ovarian
HCC-2998 colon = system: HCC-2998 colon
NCI-H226 lung = system: NCI-H226 lung
MDA-N = system: MDA-N

Cc1nnc(-c2ccc(C)c(-c3ccc(C(=O)Nc4cccc(C#N)c4)cc3)c2)o1
inactive: GI50 (MDA-MB-231 breast) > 25 µM | GI50 (NCI-H460 lung) > 25 µM | GI50 (CAKI-1 renal) > 25 µM | GI50 (SF-295 CNS) > 25 µM | GI50 (MCF7 breast) > 25 µM | GI50 (SF-539 CNS) > 25 µM | GI50 (HCT-116 colon) > 25 µM | GI50 (HS 578T breast) > 25 µM | GI50 (NCI/ADR-RES ovarian) > 25 µM | GI50 (SK-MEL-28 melanoma) > 25 µM | GI50 (SNB-75 CNS) > 25 µM | GI50 (SF-268 CNS) > 25 µM | GI50 (SN12C renal) > 25 µM | GI50 (U251 CNS) > 25 µM | GI50 (TK-10 renal) > 25 µM | GI50 (786-0 renal) > 25 µM | GI50 (UACC-257 melanoma) > 25 µM | GI50 (OVCAR-3 ovarian) > 25 µM | GI50 (IGROV1 ovarian) > 25 µM | GI50 (RPMI-8226 leukemia) > 25 µM | GI50 (MALME-3M melanoma) > 25 µM | GI50 (SNB-19 CNS) > 25 µM | GI50 (SW-620 colon) > 25 µM | GI50 (SK-MEL-2 melanoma) > 25 µM | GI50 (NCI-H23 lung) > 25 µM | GI50 (DU-145 prostate) > 25 µM | GI50 (NCI-H522 lung) > 25 µM | GI50 (MOLT-4 leukemia) > 25 µM | GI50 (KM12 colon) > 25 µM | GI50 (LOX IMVI melanoma) > 25 µM | GI50 (A498 renal) > 25 µM | GI50 (T-47D breast) > 15.9 µM | GI50 (BT-549 breast) > 25 µM | GI50 (SK-OV-3 ovarian) > 25 µM | GI50 (K-562 leukemia) > 25 µM | GI50 (MDA-MB-435) > 25 µM | GI50 (HL-60(TB) leukemia) > 25 µM | GI50 (M14 melanoma) > 25 µM | GI50 (ACHN renal) > 25 µM | GI50 (PC-3 prostate) > 25 µM | GI50 (UACC-62 melanoma) > 25 µM | GI50 (HCT-15 colon) > 25 µM | GI50 (HOP-92 NSCLC) > 25 µM | GI50 (OVCAR-4 ovarian) 17.7 µM | GI50 (RXF 393 renal) > 25 µM | GI50 (HT29 colon) > 25 µM | GI50 (COLO 205 colon) > 25 µM | GI50 (SK-MEL-5 melanoma) > 16.2 µM | GI50 (UO-31 renal) > 25 µM | GI50 (CCRF-CEM leukemia) > 25 µM | GI50 (OVCAR-8 ovarian) > 25 µM | GI50 (A549 NSCLC) > 25 µM | GI50 (SR leukemia) > 25 µM | GI50 (HOP-62 NSCLC) > 25 µM | GI50 (EKVX NSCLC) > 25 µM | GI50 (OVCAR-5 ovarian) > 25 µM | GI50 (HCC-2998 colon) > 25 µM | GI50 (NCI-H226 lung) > 10.9 µM
> 25 µM: TGI (MDA-MB-231 breast) | TGI (NCI-H460 lung) | TGI (CAKI-1 renal) | TGI (SF-295 CNS) | TGI (MCF7 breast) | TGI (SF-539 CNS) | TGI (HCT-116 colon) | TGI (HS 578T breast) | TGI (NCI/ADR-RES ovarian) | TGI (SK-MEL-28 melanoma) | TGI (SNB-75 CNS) | TGI (SF-268 CNS) | TGI (SN12C renal) | TGI (U251 CNS) | TGI (TK-10 renal) | TGI (786-0 renal) | TGI (UACC-257 melanoma) | TGI (OVCAR-3 ovarian) | TGI (IGROV1 ovarian) | TGI (RPMI-8226 leukemia) | TGI (MALME-3M melanoma) | TGI (SNB-19 CNS) | TGI (SW-620 colon) | TGI (SK-MEL-2 melanoma) | TGI (NCI-H23 lung) | TGI (DU-145 prostate) | TGI (NCI-H522 lung) | TGI (MOLT-4 leukemia) | TGI (KM12 colon) | TGI (LOX IMVI melanoma) | TGI (A498 renal) | TGI (T-47D breast) | TGI (BT-549 breast) | TGI (SK-OV-3 ovarian) | TGI (K-562 leukemia) | TGI (MDA-MB-435) | TGI (HL-60(TB) leukemia) | TGI (M14 melanoma) | TGI (ACHN renal) | TGI (PC-3 prostate) | TGI (UACC-62 melanoma) | TGI (HCT-15 colon) | TGI (HOP-92 NSCLC) | TGI (OVCAR-4 ovarian) | TGI (RXF 393 renal) | TGI (HT29 colon) | TGI (COLO 205 colon) | TGI (SK-MEL-5 melanoma) | TGI (UO-31 renal) | TGI (CCRF-CEM leukemia) | TGI (OVCAR-8 ovarian) | TGI (A549 NSCLC) | TGI (SR leukemia) | TGI (HOP-62 NSCLC) | TGI (EKVX NSCLC) | TGI (OVCAR-5 ovarian) | TGI (HCC-2998 colon) | TGI (NCI-H226 lung)

CCCCCCCCCC[C@@H](OC(C)=O)[C@@H]1CC[C@@H]([C@@H]2CC[C@@H]([C@@H](O)CC#C/C=C/CCCCCCC[C@@]3(Sc4ccccc4)C[C@H](C)OC3=O)O2)O1
> 10 µM: TGI (MDA-MB-231 breast) | TGI (CAKI-1 renal) | TGI (SF-295 CNS) | TGI (MCF7 breast) | TGI (SK-MEL-28 melanoma) | TGI (SNB-75 CNS) | TGI (SF-268 CNS) | TGI (SN12C renal) | TGI (TK-10 renal) | TGI (786-0 renal) | TGI (UACC-257 melanoma) | TGI (IGROV1 ovarian) | TGI (RPMI-8226 leukemia) | TGI (MALME-3M melanoma) | TGI (SW-620 colon) | TGI (NCI-H23 lung) | TGI (DU-145 prostate) | TGI (MOLT-4 leukemia) | TGI (KM12 colon) | TGI (LOX IMVI melanoma) | TGI (T-47D breast) | TGI (SK-OV-3 ovarian) | TGI (K-562 leukemia) | TGI (HL-60(TB) leukemia) | TGI (M14 melanoma) | TGI (PC-3 prostate) | TGI (UACC-62 melanoma) | TGI (HCT-15 colon) | TGI (MDA-N) | TGI (RXF 393 renal) | TGI (HT29 colon) | TGI (COLO 205 colon) | TGI (SK-MEL-5 melanoma) | TGI (CCRF-CEM leukemia) | TGI (OVCAR-8 ovarian) | TGI (A549 NSCLC) | TGI (SR leukemia) | TGI (HOP-62 NSCLC) | TGI (EKVX NSCLC) | TGI (HCC-2998 colon)

N#CSCC(Cl)=CCl (mixture of isomers)
97.5 µM: TGI (MOLT-4 leukemia)
> 100 µM: TGI (MDA-MB-231 breast) | TGI (NCI-H460 lung) | TGI (SF-295 CNS) | TGI (SF-539 CNS) | TGI (HCT-116 colon) | TGI (HS 578T breast) | TGI (NCI/ADR-RES ovarian) | TGI (SK-MEL-28 melanoma) | TGI (SNB-75 CNS) | TGI (SF-268 CNS) | TGI (SN12C renal) | TGI (U251 CNS) | TGI (TK-10 renal) | TGI (786-0 renal) | TGI (UACC-257 melanoma) | TGI (OVCAR-3 ovarian) | TGI (IGROV1 ovarian) | TGI (RPMI-8226 leukemia) | TGI (MALME-3M melanoma) | TGI (SNB-19 CNS) | TGI (SW-620 colon) | TGI (SK-MEL-2 melanoma) | TGI (NCI-H23 lung) | TGI (DU-145 prostate) | TGI (NCI-H522 lung) | TGI (KM12 colon) | TGI (A498 renal) | TGI (T-47D breast) | TGI (SK-OV-3 ovarian) | TGI (K-562 leukemia) | TGI (MDA-MB-435) | TGI (HL-60(TB) leukemia) | TGI (M14 melanoma) | TGI (ACHN renal) | TGI (PC-3 prostate) | TGI (UACC-62 melanoma) | TGI (HCT-15 colon) | TGI (HOP-92 NSCLC) | TGI (MDA-N) | TGI (OVCAR-4 ovarian) | TGI (RXF 393 renal) | TGI (HT29 colon) | TGI (COLO 205 colon) | TGI (SK-MEL-5 melanoma) | TGI (UO-31 renal) | TGI (CCRF-CEM leukemia) | TGI (OVCAR-8 ovarian) | TGI (A549 NSCLC) | TGI (SR leukemia) | TGI (HOP-62 NSCLC) | TGI (EKVX NSCLC) | TGI (OVCAR-5 ovarian) | TGI (HCC-2998 colon) | TGI (NCI-H226 lung)
71.7 µM: TGI (LOX IMVI melanoma)
